Experimental data: ChEMBL document CHEMBL1129930, “Analogues of methotrexate in rheumatoid arthritis. 2. Effects of 5-deazaaminopterin, 5,10-dideazaaminopterin, and analogues on type II collagen-induced arthritis in mice” (J Med Chem, 1997)

Legend:
Assay type in all cases: functional
[1] = test system: Mus musculus; assay: Incidence of disease (mouse type II collagen) was scored as the percentage of animals within each experimental group that exhibited joint or limb inflammation on day 23 at intraperitoneal dose of 8 mg/kg
[2] = test system: Mus musculus; assay: Incidence of disease (mouse type II collagen) was scored as the percentage of animals within each experimental group that exhibited joint or limb inflammation on day 37 at intraperitoneal dose of 8 mg/kg
[3] = test system: Mus musculus; assay: Tested for antiinflammatory activity on mouse type II collagen arthritis as Paw swelling of all animals in each group on day 44 at intraperitoneal dose of 8 mg/kg
[4] = test system: Mus musculus; assay: Tested for antiinflammatory activity on mouse type II collagen arthritis as Paw swelling of all animals in each group on day 37 at intraperitoneal dose of 8 mg/kg
[5] = test system: Mus musculus; assay: Incidence of disease (mouse type II collagen) was scored as the percentage of animals within each experimental group that exhibited joint or limb inflammation on day 30 at intraperitoneal dose of 8 mg/kg
[6] = test system: Mus musculus; assay: Incidence of disease (mouse type II collagen) was scored as the percentage of animals within each experimental group that exhibited joint or limb inflammation on day 44 at intraperitoneal dose of 8 mg/kg
[7] = test system: Mus musculus; assay: Tested for antiinflammatory activity on mouse type II collagen arthritis as Paw swelling of all animals in each group on day 30 at intraperitoneal dose of 8 mg/kg
[8] = test system: Mus musculus; assay: Tested for antiinflammatory activity on mouse type II collagen arthritis as Paw swelling of all animals in each group on day 23 at intraperitoneal dose of 8 mg/kg

Nc1nc(N)c2cc(CCc3ccc(C(=O)NC(CCC(=O)O)C(=O)O)s3)cnc2n1 (stereo not drawn)
Animals [1]: 0% | Animals [2]: 88% | Paw swelling [3]: 2.63 mm | Paw swelling [4]: 2.6 mm | Animals [5]: 25% | Animals [6]: 88% | Paw swelling [7]: 2.19 mm | Paw swelling [8]: 2.13 mm
